Measured values from patent US20080085264A1, “METHODS FOR ENHANCING STEM CELL ENGRAFTMENT DURING TRANSPLANTATION” (priority 2003, published 2008).

Experiments:
BoyJ recipient mice [1] = test: Short-term homing of donor Sca-1+lin- cells to recipient bone marrow; type: in vivo, mouse
Method: Control C57BL/6 (CD45.2^+), CD26 inhibitor treated C57BL/6 (CD45.2^+), or CD26^−/− (CD45.2^+) sorted Sca-1^+lin^− or LD donor BM cells were transplanted by tail-vein injection into lethally irradiated (1100 cGy split dose) congenic BoyJ (CD45.1^+) female recipient mice (Haneline L S, et al. Blood. 1999; 94:1-8.) Contribution of Sca^+lin^− donor cells in the context of Sca-1^+lin^− recipient cells was calculated by flow cytometric analysis of cells found in the recipient mouse BM by measuring CD45.1+ and CD45.2^+ on Sca-1^+lin^− LD cells isolated from the recipient mice 24 hours post transplant. […] Comparisons between treatment groups were made using a two-tailed Student's t-test and data was plotted as mean (M)±standard error of the mean (SEM).

C57BL/6 mice [2] = test: G-CSF induced mobilization of HSC/HPC in C57BL/6 mice (progenitor cell assays of peripheral blood); type: in vivo; settings: 5 μmol/mouse 2×/day s.c. alone, without G-CSF
BoyJ recipient mice [3] = test: Non-competitive long-term engraftment; type: in vivo, mouse; settings: six months post transplant, P<0.05, n=5
Method: Control C57BL/6 (CD45.2^+) or CD26 inhibitor treated C57BL/6 (CD45.2^+) LD donor BM cells were transplanted by tail-vein injection into lethally irradiated (1100 cGy split dose) congenic BoyJ (CD45.1^+) female recipient mice (Haneline L S, et al. Blood. 1999; 94:1-8). Contribution of donor cells was obtained by measuring the number of donor and residual recipient lymphocytes in the peripheral blood. The % donor contribution was calculated by flow cytometric analysis of peripheral blood lymphocytes found in the recipient mouse peripheral blood by measuring CD45.1^+ and CD45.2^+ on cells isolated from the recipient mice 1-6 months post transplant. No less than five mice from each recipient group were analyzed, each one having received a transplant of 5×10^5 pooled LD donor BM cells. Comparisons between treatment groups were made using a two-tailed Student's t-test and data was plotted as mean (M)±standard error of the mean (SEM).

BoyJ irradiated mice = test: Competitive repopulation assay; type: in vivo, mouse; settings: six months post transplant, 5×10^5 or 2.5×10^5 donor cells vs 5×10^5 competitor BoyJ cells
From the text: Donor LDBM cells (5×10^5) from representative mice from each test group were transplanted into lethally irradiated BoyJ mice (expressing CD45.1) Quantitative contribution to chimerism was obtained 2-6 months post-transplantation in the same manner described for long-term engraftment assays.
Eight week old female recipient mice were lethally irradiated (1100 cGy split dose) prior to transplantation as previously described (Haneline L S, et al. Blood. 1999; 94:1-8). Limiting dilutions of donor LD BM cells (5×10^5, 2.5×10^5, 1.25×10^5, and 0.625×10^5 cells) from control C57Bl/6 mice, CD26-inhibitor treated LD BM cells, or untreated LD BM cells from CD26^−/− mice (all expressing CD45.2) are co-transplanted with a constant number (5×10^5) of pooled competitive BM cells from congenic BoyJ mice (expressing CD45.1), into BoyJ irradiated mice. To determine quantitatively the relative cell contribution to chimerism of each test cell population tail-vein blood samples were obtained post-transplantation each month for three months and CD45.1 and CD45.2 was measured by flow-cytometry. Cells were divided into CD26 inhibitor (either Diprotin A or Val-Pyr) treated or untreated groups obtained from normal C57BL/6 mice and untreated cells obtained from CD26^−/− mice. […]

DBA/2 mice [4] = test: G-CSF induced mobilization of HSC/HPC in DBA/2 mice (progenitor cell assays of peripheral blood); type: in vivo, mouse; settings: without G-CSF
C57BL/6 mice [5] = test: G-CSF induced mobilization of HSC/HPC in C57BL/6 mice (progenitor cell assays of peripheral blood); type: in vivo, mouse; settings: for effect of scrambled peptides on mobilization: C57BL/6, data not shown
Method: (§1) Mobilization was achieved by treating mice with 2.5 μg (micrograms) G-CSF/mouse 2×/day s.c. for 2 days (Broxmeyer H E, et al. J Exp Med. 1999; 189:1987-1992). Mice simultaneously treated with a specific CD26 inhibitor also underwent treatment with either 5 μmol Diprotin A/mouse 2×/day s.c. for 2 days or 5 μmol Val-Pyr/mouse 2×/day s.c. for 2 days. Diprotin A was obtained commercially (Peptides International, Louisville, Ky.) and Val-Pyr was obtained as a gift from Nicolai Wagtmann (Novo Nordisk, Denmark). After either G-CSF or G-CSF plus CD26 inhibitor treatment peripheral blood cells were collected and total cellular nuclearity was measured and progenitor cell assays were performed using total peripheral blood cells.
(§2) One-hundred thousand mouse G-CSF mobilized peripheral blood cells were plated in triplicate for colony formation by CFU-GM, BFU-E, and CFU-GEMM and scored at 7 days incubation as previously described (Cooper S, Broxmeyer H E. Measurement of interleukin-3 and other hematopoietic growth factors, such as GM-CSF, G-CSF, M-CSF, erkythropoietin and the potent co-stimulating cytokines steel factor and FLt-3 ligand. In: Coligan J E K A, Margulies D H, Shevach E M, Strober E, Coico R, ed. Current protocols in immunology. New York: John Wiley & Sons; 1996:6.4.1-6.4.12). Cells were plated for colony formation in 1% methylcellulose culture medium containing 30% FBS, 1 U/ml recombinant(r) human Epo, 0.1 mM Hemin, 5% Pokeweed Mitogen Spleen Conditioned Media (PWMSCM), and 50 ng/ml rmouse Steel Factor (=Stem Cell Factor, SCF).

DBA/2 mice [6] = test: G-CSF induced mobilization of HSC/HPC in DBA/2 mice (progenitor cell assays of peripheral blood); type: in vivo, mouse
Method: as §1, §2

CD26-/- mice = test: G-CSF induced mobilization of progenitors in CD26-/- mice; type: in vivo, mouse; settings: CD26-/- mice on C57Bl/6 background
Method: as §1
as §2, with “Cells were plated for colony formation in 1% methylcellulose culture medium containing 30% FBS, 1 U/ml recombinant(r) human Epo, 0.1 mM Hemin, 5% Pokeweed Mitogen Spleen Conditioned Media (PWMSCM), and 50 ng/ml rmouse Steel Factor (=Stem Cell Factor, SCF).” left out

[7] = inhibitor 5 μmol/mouse 2×/day s.c. during G-CSF mobilization, C57BL/6
[8] = inhibitor treatment during G-CSF mobilization
[9] = 2.5 μg G-CSF/mouse 2×/day s.c., C57BL/6

## c1cc(CN2CCCNCCNCCCNCC2)ccc1CN1CCCNCCNCCCNCC1 [AMD3100]
BoyJ recipient mice [1]; 10×10^6 LDBM donor cells treated with AMD3100 for 15 minutes prior to transplantation
  effect on the increase in homing efficiency generated by inhibition or loss of CD26: reversed the increase in homing efficiency
BoyJ recipient mice [1]; AMD3100 treatment alone, no CD26 inhibitor
  homing efficiency compared to control LDBM cells: reduction in homing efficiency

## CC(C)[C@H](N)C(=O)N1CCCC1 [Val-Pyr, Valine-Pyrrolidide]
C57BL/6 mice [2]
  effect on the mobilization of progenitors, inhibitor alone: little or no effect
BoyJ recipient mice [1]; donor LDBM unit treated prior to transplant, P<0.01, n=6
  short-term homing of donor cells: significant increase in short-term homing
BoyJ recipient mice [3]
  donor cell contribution to the formation of peripheral blood leukocytes: Increased donor cell contribution
BoyJ irradiated mice
  donor contribution to chimerism: increased donor contribution to chimerism
DBA/2 mice [4]
  effect on the mobilization of progenitors, inhibitor alone: little or no effect
C57BL/6 mice [5]; [7]
  reduction in BFU-E compared to G-CSF alone: 22%
  reduction in CFU-GEMM compared to G-CSF alone: 62%
  reduction in CFU-GM compared to G-CSF alone: 55%
DBA/2 mice [6]; [8]
  reduction in BFU-E compared to G-CSF alone: 49%
  reduction in CFU-GEMM compared to G-CSF alone: 56%
  reduction in CFU-GM compared to G-CSF alone: 52%

## Ile-Ile-Pro
C57BL/6 mice [5]
  effect of scrambled peptides on mobilization: no effect

## Pro-Ile-Ile
C57BL/6 mice [5]
  effect of scrambled peptides on mobilization: no effect

B1: G-CSF: cytokine used to induce mobilization of HSC/HPC (protein, UniProt P09919 31-207, looked up)
Granulocyte …: TPLGPASSLPQSFLLKCLEQVRKIQGDGAALQEKLVSECATYKLCHPEELVLLGHSLGIPWAPLSSCPSQALQLAGCLSQLHSGLFLYQGLLQALEGISPELGPTLDTLQLDVADFATTIWQQMEELGMAPALQPTQGAMPAFASAFQRRAGGVLVASHLQSFLEVSYRVLRHLAQP
CD26-/- mice
  mobilization of progenitor cells by G-CSF: low, but significant, mobilization
C57BL/6 mice [5]; [9]
  BFU-E mobilized to peripheral blood: 1027±107 BFU-E/ml
  CFU-GEMM mobilized to peripheral blood: 442±35 CFU-GEMM/ml
  CFU-GM mobilized to peripheral blood: 2348±249 CFU-GM/ml
DBA/2 mice [6]; 2.5 μg G-CSF/mouse 2×/day s.c.
  BFU-E mobilized to peripheral blood: 2219±141 BFU-E/ml
  CFU-GEMM mobilized to peripheral blood: 1186±163 CFU-GEMM/ml
  CFU-GM mobilized to peripheral blood: 8145±1038 CFU-GM/ml
